The molecules below were run on NCI-H1975 (assay: Antiproliferative activity against human NCI-H1975 cells harboring EGFR L858R/T790M double mutant assessed as reduction in cell growth incubated for 72 hrs by CellTiter-Glo luminescent assay). Details: NCI-H1975, 72 h.
Type: functional, cell-based

IC50 [nM]	Structure (SMILES)
16	C=CC(=O)Nc1cc(Nc2ncc(Cl)c(-c3cnn4ccccc34)n2)c(OC)cc1N1CCN(C(=O)CN(C)C)CC1
19	C=CC(=O)Nc1cc(Nc2ncc(Cl)c(-c3cnn4ccccc34)n2)c(OC)cc1N1CCN(C(=O)[C@H](C)N)CC1
66	C=CC(=O)Nc1cc(Nc2ncc(Cl)c(-c3cnn4ccccc34)n2)c(OC)cc1N1CCN(C(=O)CNC)CC1
75	C=CC(=O)Nc1cc(Nc2ncc(Cl)c(-c3cnn4ccccc34)n2)c(OC)cc1N1CCN(C(=O)[C@H](C)O)CC1
177	C=CC(=O)Nc1cc(Nc2ncc(Cl)c(-c3cnn4ccccc34)n2)c(OC)cc1N1CCN(C(=O)[C@@H](C)N)CC1
2	C=CC(=O)Nc1cc(Nc2ncc(Cl)c(-c3cnn4ccccc34)n2)c(OC)cc1N1CC[C@@H](N(C)C)C1
0.6	C=CC(=O)Nc1cc(Nc2ncc(Cl)c(-c3cnn4ccccc34)n2)c(OC)cc1N(C)CCN(C)C
0.9	C=CC(=O)Nc1cc(Nc2ncc(C#N)c(-c3cn(C)c4ccccc34)n2)c(OC)cc1N(C)CCN(C)C
2	C=CC(=O)Nc1cc(Nc2ncc(Cl)c(-c3cn(C)c4ccccc34)n2)c(OC)cc1N(C)CCN(C)C
0.2	C=CC(=O)Nc1cc(Nc2ncc(Cl)c(-c3c[nH]c4ccccc34)n2)c(OC)cc1N(C)CCN(C)C
1	C=CC(=O)Nc1cc(Nc2ncc(C)c(-c3cn(C)c4ccccc34)n2)c(OC)cc1N(C)CCN(C)C
2	C=CC(=O)Nc1cc(Nc2nccc(-c3c[nH]c4ccccc34)n2)c(OC)cc1N(C)CCN(C)C

These molecules were tested on PC-9 (assay: Antiproliferative activity against human PC-9 cells harboring EGFR Del19 mutant assessed as inhibition of cell growth incubated for 72 hrs by CCK8 assay). Details: PC-9, 72 h.
Type: functional, cell-based

IC50 [nM]	Structure (SMILES)
73	C=CC(=O)Nc1cc(Nc2ncc(Cl)c(-c3cnn4ccccc34)n2)c(OC)cc1N1CCN(C(=O)CN(C)C)CC1
28	C=CC(=O)Nc1cc(Nc2ncc(Cl)c(-c3cnn4ccccc34)n2)c(OC)cc1N1CCN(C(=O)[C@H](C)N)CC1
156	C=CC(=O)Nc1cc(Nc2ncc(Cl)c(-c3cnn4ccccc34)n2)c(OC)cc1N1CCN(C(=O)CNC)CC1
179	C=CC(=O)Nc1cc(Nc2ncc(Cl)c(-c3cnn4ccccc34)n2)c(OC)cc1N1CCN(C(=O)[C@H](C)O)CC1
351	C=CC(=O)Nc1cc(Nc2ncc(Cl)c(-c3cnn4ccccc34)n2)c(OC)cc1N1CCN(C(=O)[C@@H](C)N)CC1
16	C=CC(=O)Nc1cc(Nc2ncc(Cl)c(-c3cnn4ccccc34)n2)c(OC)cc1N1CC[C@@H](N(C)C)C1
2	C=CC(=O)Nc1cc(Nc2ncc(Cl)c(-c3cnn4ccccc34)n2)c(OC)cc1N(C)CCN(C)C
21	C=CC(=O)Nc1cc(Nc2ncc(Cl)c(-c3cnn4ccccc34)n2)c(OC)cc1N1CC(N(C)C)C1

Each molecule was assayed on LoVo (assay: Antiproliferative activity against human LoVo cells harboring wild-type EGFR assessed as reduction in cell growth incubated for 72 hrs by CCK8 assay). Details: not given.
Type: functional, cell-based

IC50 [nM]	Structure (SMILES)
10000	C=CC(=O)Nc1cc(Nc2ncc(Cl)c(-c3cnn4ccccc34)n2)c(OC)cc1N1CCN(C(=O)CN(C)C)CC1
1600	C=CC(=O)Nc1cc(Nc2ncc(Cl)c(-c3cnn4ccccc34)n2)c(OC)cc1N1CCN(C(=O)[C@H](C)N)CC1
7500	C=CC(=O)Nc1cc(Nc2ncc(Cl)c(-c3cnn4ccccc34)n2)c(OC)cc1N1CCN(C(=O)CNC)CC1
10300	C=CC(=O)Nc1cc(Nc2ncc(Cl)c(-c3cnn4ccccc34)n2)c(OC)cc1N1CCN(C(=O)[C@H](C)O)CC1
9000	C=CC(=O)Nc1cc(Nc2ncc(Cl)c(-c3cnn4ccccc34)n2)c(OC)cc1N1CCN(C(=O)[C@@H](C)N)CC1
3360	C=CC(=O)Nc1cc(Nc2ncc(Cl)c(-c3cnn4ccccc34)n2)c(OC)cc1N1CC[C@@H](N(C)C)C1
145	C=CC(=O)Nc1cc(Nc2ncc(Cl)c(-c3cnn4ccccc34)n2)c(OC)cc1N(C)CCN(C)C
938	C=CC(=O)Nc1cc(Nc2ncc(Cl)c(-c3cnn4ccccc34)n2)c(OC)cc1N1CC(N(C)C)C1

The molecules below were run on PC-9 (assay: Antiproliferative activity against human PC-9 cells harboring EGFR del19 mutant assessed as cell growth inhibition incubated for 72 hrs by CellTiter Glo assay). Details: PC-9, 72 h.
Type: functional, cell-based

IC50 [nM]	Structure (SMILES)
2	C=CC(=O)Nc1cc(Nc2ncc(C#N)c(-c3cn(C)c4ccccc34)n2)c(OC)cc1N(C)CCN(C)C
2	C=CC(=O)Nc1cc(Nc2ncc(Cl)c(-c3cn(C)c4ccccc34)n2)c(OC)cc1N(C)CCN(C)C
0.6	C=CC(=O)Nc1cc(Nc2ncc(Cl)c(-c3c[nH]c4ccccc34)n2)c(OC)cc1N(C)CCN(C)C
2	C=CC(=O)Nc1cc(Nc2nccc(-c3c[nH]c4ccccc34)n2)c(OC)cc1N(C)CCN(C)C

Structure (SMILES)	IC50 [nM]
C=CC(=O)Nc1cc(Nc2nccc(-c3cn(C)c4ccccc34)n2)c(OC)cc1N(C)CCN(C)C [OSIMERTINIB]	[…]

These molecules were tested on LoVo (assay: Antiproliferative activity against human LoVo cells harboring wild-type EGFR assessed as reduction in cell viability). Details: not given.
Type: functional, cell-based

IC50 [nM]	Structure (SMILES)
46	C=CC(=O)Nc1cc(Nc2ncc(C#N)c(-c3cn(C)c4ccccc34)n2)c(OC)cc1N(C)CCN(C)C
58	C=CC(=O)Nc1cc(Nc2ncc(Cl)c(-c3cn(C)c4ccccc34)n2)c(OC)cc1N(C)CCN(C)C
11	C=CC(=O)Nc1cc(Nc2ncc(Cl)c(-c3c[nH]c4ccccc34)n2)c(OC)cc1N(C)CCN(C)C
71	C=CC(=O)Nc1cc(Nc2ncc(C)c(-c3cn(C)c4ccccc34)n2)c(OC)cc1N(C)CCN(C)C
33	C=CC(=O)Nc1cc(Nc2nccc(-c3c[nH]c4ccccc34)n2)c(OC)cc1N(C)CCN(C)C

What follows are molecules tested on NCI-H1975 (assay: Antiproliferative activity against human NCI-H1975 cells assessed as reduction in cell viability incubated for 72 hrs by Cell-titer glo assay). Details: NCI-H1975, 72 h.
Type: functional, cell-based

IC50 [nM]	Structure (SMILES)
8.15	C=CC(=O)Nc1cc(Nc2ncc(Cl)c(-c3cn(C4CC4)c4ccccc34)n2)c(OC)cc1N(C)CCN(C)C

Each molecule was assayed on A-431 (assay: Antiproliferative activity against human A-431 cells assessed as reduction in cell viability incubated for 48 hrs by MTT assay). Details: A-431, 48 h.
Type: functional, cell-based

Structure (SMILES)	IC50 [nM]
C=CC(=O)Nc1cc(Nc2ncc(Cl)c(-c3cn(C4CC4)c4ccccc34)n2)c(OC)cc1N(C)CCN(C)C	59

The molecules below were run against T1, Epidermal growth factor receptor (Homo sapiens, UniProt P00533, L858R/T790M) (assay: Inhibition of EGFR L858R/T790M mutant (unknown origin)). Details: not given.
T1 sequence (P00533 25-1210 T790M/L858R limits assumed): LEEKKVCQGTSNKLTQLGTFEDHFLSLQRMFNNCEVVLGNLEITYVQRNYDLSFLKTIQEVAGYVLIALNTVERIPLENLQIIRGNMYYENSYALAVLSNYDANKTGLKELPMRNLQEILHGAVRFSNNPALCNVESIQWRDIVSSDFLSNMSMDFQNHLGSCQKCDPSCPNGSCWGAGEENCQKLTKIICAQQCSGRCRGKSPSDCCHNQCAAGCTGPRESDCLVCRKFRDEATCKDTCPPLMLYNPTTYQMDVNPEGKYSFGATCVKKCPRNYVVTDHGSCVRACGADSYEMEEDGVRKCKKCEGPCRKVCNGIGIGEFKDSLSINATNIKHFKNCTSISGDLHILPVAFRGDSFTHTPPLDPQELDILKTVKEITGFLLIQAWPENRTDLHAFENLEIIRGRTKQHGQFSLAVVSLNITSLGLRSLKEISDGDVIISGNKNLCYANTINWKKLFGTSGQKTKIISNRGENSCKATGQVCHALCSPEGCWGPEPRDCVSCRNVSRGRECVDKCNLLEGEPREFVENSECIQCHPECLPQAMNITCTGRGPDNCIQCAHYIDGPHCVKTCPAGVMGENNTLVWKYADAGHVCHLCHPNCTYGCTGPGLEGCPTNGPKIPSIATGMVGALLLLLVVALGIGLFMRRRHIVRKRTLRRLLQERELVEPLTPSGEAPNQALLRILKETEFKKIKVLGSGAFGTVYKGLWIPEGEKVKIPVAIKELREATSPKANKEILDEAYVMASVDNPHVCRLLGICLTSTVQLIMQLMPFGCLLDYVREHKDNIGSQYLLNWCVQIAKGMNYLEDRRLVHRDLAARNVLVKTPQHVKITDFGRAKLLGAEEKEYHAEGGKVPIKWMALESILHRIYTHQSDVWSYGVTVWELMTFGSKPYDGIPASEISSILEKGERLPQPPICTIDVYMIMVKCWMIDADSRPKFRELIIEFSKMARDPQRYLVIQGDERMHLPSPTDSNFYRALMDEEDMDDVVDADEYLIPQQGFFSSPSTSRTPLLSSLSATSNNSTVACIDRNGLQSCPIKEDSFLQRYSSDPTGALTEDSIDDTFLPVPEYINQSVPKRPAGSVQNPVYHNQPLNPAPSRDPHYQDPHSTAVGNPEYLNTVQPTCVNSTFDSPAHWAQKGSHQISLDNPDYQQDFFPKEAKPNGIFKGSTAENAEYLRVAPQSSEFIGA

IC50 [nM]	Structure (SMILES)
0.26	C=CC(=O)Nc1cc(Nc2nccc(-c3csc4ccccc34)n2)c(OC)cc1N(C)CCN(C)C

These molecules were tested against Epidermal growth factor receptor (Homo sapiens, UniProt P00533) (assay: Inhibition of wild-type EGFR (unknown origin) using TK as substrate incubated for 120 mins in presence of ATP by HTRF assay). Details: not given.
Sequence of Epidermal growth factor receptor (Homo sapiens, UniProt P00533) (P00533 whole entry): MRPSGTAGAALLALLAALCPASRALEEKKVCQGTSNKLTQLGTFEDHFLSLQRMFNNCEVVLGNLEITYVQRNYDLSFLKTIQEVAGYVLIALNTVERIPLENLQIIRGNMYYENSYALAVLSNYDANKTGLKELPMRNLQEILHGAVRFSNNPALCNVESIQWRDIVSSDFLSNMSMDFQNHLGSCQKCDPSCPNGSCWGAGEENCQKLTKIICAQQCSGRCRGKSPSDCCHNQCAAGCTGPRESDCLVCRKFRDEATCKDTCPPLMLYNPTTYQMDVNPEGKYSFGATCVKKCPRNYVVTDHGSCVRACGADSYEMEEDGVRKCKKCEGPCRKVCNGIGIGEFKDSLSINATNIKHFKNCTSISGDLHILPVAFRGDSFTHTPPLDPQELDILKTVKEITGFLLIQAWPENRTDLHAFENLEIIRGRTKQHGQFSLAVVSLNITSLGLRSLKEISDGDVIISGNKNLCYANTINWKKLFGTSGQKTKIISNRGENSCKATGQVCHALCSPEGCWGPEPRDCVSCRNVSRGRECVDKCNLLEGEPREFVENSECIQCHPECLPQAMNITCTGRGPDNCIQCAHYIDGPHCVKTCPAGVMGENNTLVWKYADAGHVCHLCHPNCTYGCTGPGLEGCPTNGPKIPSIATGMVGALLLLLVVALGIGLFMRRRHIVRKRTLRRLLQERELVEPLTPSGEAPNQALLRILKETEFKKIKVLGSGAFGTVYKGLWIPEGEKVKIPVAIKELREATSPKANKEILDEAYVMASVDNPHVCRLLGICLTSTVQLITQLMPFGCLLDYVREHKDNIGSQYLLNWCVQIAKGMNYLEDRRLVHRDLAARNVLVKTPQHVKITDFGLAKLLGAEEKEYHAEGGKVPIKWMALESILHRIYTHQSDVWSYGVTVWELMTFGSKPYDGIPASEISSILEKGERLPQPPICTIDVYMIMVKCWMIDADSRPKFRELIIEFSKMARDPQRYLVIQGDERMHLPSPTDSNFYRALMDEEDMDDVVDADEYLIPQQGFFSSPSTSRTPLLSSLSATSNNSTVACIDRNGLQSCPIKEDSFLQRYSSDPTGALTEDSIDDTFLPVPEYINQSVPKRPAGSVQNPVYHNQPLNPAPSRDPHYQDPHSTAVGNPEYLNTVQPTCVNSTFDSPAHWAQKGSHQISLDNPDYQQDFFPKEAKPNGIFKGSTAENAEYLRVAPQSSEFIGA

IC50 [nM]	Structure (SMILES)
4.11	C=CC(=O)Nc1cc(Nc2nccc(-c3csc4ccccc34)n2)c(OC)cc1N(C)CCN(C)C

The molecules below were run on NCI-H1975 (assay: Cytotoxicity against human NCI-H1975 cells assessed as reduction in cell viability incubated for 48 hrs by CCK-8 assay). Details: NCI-H1975, 48 h.
Type: functional, cell-based

Structure (SMILES)	IC50 [nM]
C=CC(=O)Nc1cc(Nc2nccc(-c3csc4ccccc34)n2)c(OC)cc1N1CCN(C(C)C)CC1	130
C=CC(=O)Nc1cc(Nc2ncc(F)c(-c3csc4ccccc34)n2)c(OC)cc1N(C)CCNC(C)C	13
C=CC(=O)Nc1cc(Nc2nccc(-c3csc4ccccc34)n2)c(OC)cc1N(C)CCN(C)C	2
C=CC(=O)Nc1cc(Nc2nccc(-c3csc4ccccc34)n2)c(OC)cc1N1CCN(CC)CC1	90
C=CC(=O)Nc1cc(Nc2nccc(-c3csc4ccccc34)n2)c(OC)cc1N(C)CCCN(C)C	170
C=CC(=O)Nc1cc(Nc2nccc(-c3csc4ccccc34)n2)c(OC)cc1N1CCN(C)CC1	500

Each molecule was assayed on PC-9 (assay: Cytotoxicity against human PC-9 cells assessed as reduction in cell viability incubated for 48 hrs by CCK-8 assay). Details: PC-9, 48 h.
Type: functional, cell-based

Structure (SMILES)	IC50 [nM]
C=CC(=O)Nc1cc(Nc2nccc(-c3csc4ccccc34)n2)c(OC)cc1N1CCN(C(C)C)CC1	1300
C=CC(=O)Nc1cc(Nc2ncc(F)c(-c3csc4ccccc34)n2)c(OC)cc1N(C)CCNC(C)C	30
C=CC(=O)Nc1cc(Nc2nccc(-c3csc4ccccc34)n2)c(OC)cc1N(C)CCN(C)C	4
C=CC(=O)Nc1cc(Nc2nccc(-c3csc4ccccc34)n2)c(OC)cc1N1CCN(CC)CC1	800
C=CC(=O)Nc1cc(Nc2nccc(-c3csc4ccccc34)n2)c(OC)cc1N(C)CCCN(C)C	300
C=CC(=O)Nc1cc(Nc2nccc(-c3csc4ccccc34)n2)c(OC)cc1N1CCN(C)CC1	1900

What follows are molecules tested on NCI-H292 (assay: Cytotoxicity against human NCI-H292 cells assessed as reduction in cell viability incubated for 48 hrs by CCK-8 assay). Details: NCI-H292, 48 h.
Type: functional, cell-based

Structure (SMILES)	IC50 [nM]
C=CC(=O)Nc1cc(Nc2nccc(-c3csc4ccccc34)n2)c(OC)cc1N1CCN(C(C)C)CC1	> 10000
C=CC(=O)Nc1cc(Nc2ncc(F)c(-c3csc4ccccc34)n2)c(OC)cc1N(C)CCNC(C)C	3960
C=CC(=O)Nc1cc(Nc2nccc(-c3csc4ccccc34)n2)c(OC)cc1N(C)CCN(C)C	4400
C=CC(=O)Nc1cc(Nc2nccc(-c3csc4ccccc34)n2)c(OC)cc1N1CCN(CC)CC1	> 10000
C=CC(=O)Nc1cc(Nc2nccc(-c3csc4ccccc34)n2)c(OC)cc1N(C)CCCN(C)C	4000
C=CC(=O)Nc1cc(Nc2nccc(-c3csc4ccccc34)n2)c(OC)cc1N1CCN(C)CC1	> 10000
C=CC(=O)Nc1cc(Nc2nccc(-c3cn(C)c4ccccc34)n2)c(OC)cc1N(C)CCN(C)C [OSIMERTINIB]	2000

What follows are molecules tested on NCI-H1975 (assay: Antiproliferative activity against human NCI-H1975 cells). Details: not given.
Type: functional, cell-based

IC50 [nM]	Structure (SMILES)
20	C=CC(=O)Nc1cc(Nc2nccc(-c3cn(C)c4ccccc34)n2)c(OC)cc1N(C)CCN(C)Cc1ccc(Br)cc1
4	C=CC(=O)Nc1cc(Nc2nccc(-c3cn(C)c4ccccc34)n2)c(OC)cc1N(C)CCN(C)Cc1ccccc1
30	C=CC(=O)Nc1cc(Nc2nccc(-c3cn(C)c4ccccc34)n2)c(OC)cc1N(C)CCN(C)C(=O)c1ccc(Br)cc1
2	C=CCCN(C)CCN(C)c1cc(OC)c(Nc2nccc(-c3cn(C)c4ccccc34)n2)cc1NC(=O)C=C

Each molecule was assayed against T1, Epidermal growth factor receptor (assay: Inhibition of EGFR L858R/T790M (unknown origin)). Details: not given.

IC50 [nM]	Structure (SMILES)
8.1	C=CC(=O)Nc1cc(Nc2nccc(-c3cn(C)c4ccccc34)n2)c(OC)cc1N(C)CCN(C)Cc1ccc(Br)cc1
12.5	C=CC(=O)Nc1cc(Nc2nccc(-c3cn(C)c4ccccc34)n2)c(OC)cc1N(C)CCN(C)C(=O)c1ccc(Br)cc1
2	C=CCCN(C)CCN(C)c1cc(OC)c(Nc2nccc(-c3cn(C)c4ccccc34)n2)cc1NC(=O)C=C

From ChEMBL document CHEMBL5576081, “Exploring the structural activity relationship of the Osimertinib: A covalent inhibitor of double mutant EGFRL858R/T790M tyrosine kinase for the treatment of Non-Small Cell Lung Cancer (NSCLC)” (Bioorg Med Chem, 2024)
